In general, IC50 refers to the concentration at which inhibition is half-maximal.

The structures appear in SMILES notation. Where only a bound is given, the exact number is not on record here.

For 12 molecules, IC50 results are on record in patent US9062026B2, “Fused pyrimidines and substituted quinazolines as inhibitors of p97” (Cleave Biosciences, Inc., priority 2012, dated 2015).

Test [1] concerns A549 K48. Description: A549 K48 cell intensity (lysine-48 poly-ubiquitin accumulation, immunofluorescence). The class given is cell-based. The settings on record: Homo sapiens. On the procedure:
Image-analysis is used to generate quantitative data from these assays that can be fit to a four-parameter sigmoid curve to derive IC50 values. Substrates of the ubiquitin-proteasome system, such as p53, are monitored after tumor cell lines are incubated with compounds for several hours. Accumulation of these proteins indicates an inhibition of proteasome-mediated degradation. Accumulation of lysine-48 chain linkage of poly-ubiquitin is also monitored by immunofluorescence as an indicator of ubiquitin-proteasome system inhibition. Both LC3 and SQSTM1 are mediators of autophagy. The localization and amounts of these proteins are monitored by immunofluorescence and report on the activity and inhibition of autophagy in response to p97 inhibition.

In test [2] the target is p97 (Homo sapiens (Human), UniProt P55072). Description: P97 ATPase biochem assay (ADP Glo). Format: biochemical. The settings on record: read-out: p97 IC50. (ADP-Glo first removes unused ATP, then detects ADP through luciferase.)
Chain of p97 (P55072 whole entry): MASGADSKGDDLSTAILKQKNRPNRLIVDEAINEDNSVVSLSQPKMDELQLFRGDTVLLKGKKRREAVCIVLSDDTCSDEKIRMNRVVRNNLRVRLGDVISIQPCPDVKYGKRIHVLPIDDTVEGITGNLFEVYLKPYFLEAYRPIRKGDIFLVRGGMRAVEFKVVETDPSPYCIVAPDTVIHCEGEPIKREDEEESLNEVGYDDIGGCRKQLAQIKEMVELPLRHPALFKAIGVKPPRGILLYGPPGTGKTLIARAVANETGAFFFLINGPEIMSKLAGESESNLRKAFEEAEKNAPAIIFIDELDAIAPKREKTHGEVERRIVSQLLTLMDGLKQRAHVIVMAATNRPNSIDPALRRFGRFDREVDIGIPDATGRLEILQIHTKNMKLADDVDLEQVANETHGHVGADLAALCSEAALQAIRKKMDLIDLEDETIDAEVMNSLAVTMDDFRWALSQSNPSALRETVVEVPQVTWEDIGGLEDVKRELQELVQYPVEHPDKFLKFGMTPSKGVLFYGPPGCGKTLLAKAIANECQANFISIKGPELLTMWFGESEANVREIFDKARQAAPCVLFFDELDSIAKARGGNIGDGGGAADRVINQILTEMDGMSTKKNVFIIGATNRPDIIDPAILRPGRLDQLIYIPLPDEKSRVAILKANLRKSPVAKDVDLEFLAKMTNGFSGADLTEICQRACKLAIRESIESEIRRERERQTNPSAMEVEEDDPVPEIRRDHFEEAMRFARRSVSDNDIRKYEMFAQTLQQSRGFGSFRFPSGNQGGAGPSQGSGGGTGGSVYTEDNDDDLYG

Turning to `Cc1cc2c(C(N)=O)cccc2n1-c1nc2c(c(NCc3ccccc3)n1)CNCC2` [1-[4-(benzylamino)-5H,6H,7H,8H-pyrido[4,3-d]pyrimidin-2-yl]-2-methyl-1H-indole-4-carboxamide], the half-maximal inhibitory concentration (IC50) is less than 10 µM in test [1] and less than 0.1 µM in test [2].

Regarding `NCc1cc2ccccc2n1-c1nc2c(c(NCc3ccccc3)n1)CCCC2` [2-[2-(aminomethyl)-1H-indol-1-yl]-N-benzyl-5,6,7,8-tetrahydroquinazolin-4-amine], the IC50 was less than 10 µM in test [1] and less than 0.3 µM in test [2].

Turning to `COc1cccc2c(NCc3ccccc3)nc(-n3c(C(C)N)cc4ccccc43)nc12` (stereo not drawn) [2-[2-(1-aminoethyl)-1H-indol-1-yl]-N-benzyl-8-methoxyquinazolin-4-amine], the IC50 is less than 10 µM in test [1] and less than 0.3 µM in test [2].

For the molecule `CCOc1cc2ccccc2n1-c1nc2c(c(NCc3ccccc3)n1)CCCC2` [N-benzyl-2-(2-ethoxy-1H-indol-1-yl)-5,6,7,8-tetrahydroquinazolin-4-amine], the IC50 in test [1] is less than 10 µM; in test [2], less than 0.1 µM.

Regarding `Cc1cc2c(C#N)cccc2n1-c1nc2c(c(NCc3ccccc3)n1)CN(C)CC2` [1-[4-(benzylamino)-6-methyl-5H,6H,7H,8H-pyrido[4,3-d]pyrimidin-2-yl]-2-methyl-1H-indole-4-carbonitrile], the results for the IC50 in test [1] and in test [2] were less than 10 µM and less than 0.1 µM, respectively.

Take `COc1cc2c(C#N)cccc2n1-c1nc2c(c(NCc3ccccc3)n1)CCCC2` [1-[4-(benzylamino)-5,6,7,8-tetrahydroquinazolin-2-yl]-2-methoxy-1H-indole-4-carbonitrile]: the 50% inhibitory concentration (IC50) in test [1] is less than 10 µM; in test [2], less than 0.1 µM.

For the molecule `Clc1cc2ccccc2n1-c1nc2c(c(NCc3ccccc3)n1)CCCC2` [N-benzyl-2-(2-chloro-1H-indol-1-yl)-5,6,7,8-tetrahydroquinazolin-4-amine], the IC50 in test [1] was less than 10 µM; in test [2], less than 0.1 µM.

For `CS(=O)(=O)NCc1cc2ccccc2n1-c1nc2c(c(NCc3ccccc3)n1)CCCC2` [N-({1-[4-(benzylamino)-5,6,7,8-tetrahydroquinazolin-2-yl]-1H-indol-2-yl}methyl)methanesulfonamide], the IC50 is less than 10 µM in test [1] and less than 0.3 µM in test [2].

On to `COCCOc1cccc2c(NCc3ccccc3)nc(-n3c(OC)nc4ccccc43)nc12` [N-benzyl-2-(2-methoxy-1H-1,3-benzodiazol-1-yl)-8-(2-methoxyethoxy)quinazolin-4-amine], for which the IC50 was less than 10 µM in test [1] and less than 0.3 µM in test [2].

With `COCCOc1cccc2c(NCc3ccccc3)nc(-n3c(CO)cc4ccccc43)nc12` [{1-[4-(benzylamino)-8-(2-methoxyethoxy)quinazolin-2-yl]-1H-indol-2-yl}methanol], the IC50 in test [1] is less than 10 µM; in test [2] it was less than 0.1 µM.

As to `COc1cccc2c(NCc3ccccc3)nc(-n3c(/C=C/S(C)(=O)=O)cc4ccccc43)nc12` [N-benzyl-2-{2-[(E)-2-methanesulfonylethenyl]-1H-indol-1-yl}-8-methoxyquinazolin-4-amine], the half-maximal inhibitory concentration (IC50) is less than 10 µM in test [1] and less than 0.3 µM in test [2].

In the case of `CC(=O)NCc1cc2ccccc2n1-c1nc2c(c(NCc3ccccc3)n1)CCCC2` [N-({1-[4-(benzylamino)-5,6,7,8-tetrahydroquinazolin-2-yl]-1H-indol-2-yl}methyl)acetamide], the results for the IC50 in test [1] and in test [2] were less than 10 µM and less than 0.1 µM, respectively.
